{"source": "patent US20110293745A1", "about": "“AURORA KINASE INHIBITORS” (SUNESIS PHARMACEUTICALS, INC., priority 2008, published 2011)", "key": {"[1]": {"test_system": "HCT 116 colon cancer xenograft", "experiment": "In vivo efficacy, mouse xenograft", "protocol": "HCT 116 colon cancer cells [200 μL of a 2.5×10^7 cells/mL suspension (1:1 DPBS with cells:Matrigel)] were subcutaneously implanted in the right hind flank of female nu/nu athymic mice. After 7 days, when tumors reached an average volume of approximately 200 mm^3, animals were weighed, randomized by tumor volume (l×w×h×0.52), and assigned to the various study groups before initial dosing.\n[…]. The animals on the twice-weekly schedule received compound on Days 1, 4, 8, 11, 15 and 18. […].\nPercent TGI is then calculated with the following equation: […]\nwhere TVt is the average tumor volume on Day 10 and TV, is the initial average tumor volume. ANOVA was performed to calculate statistical significance, defined as p<0.05.\nTime To Endpoint (TTE) was calculated for each individual animal to reach the predetermined study end point where the tumor volume becomes 1200 mm^3 or 10% of body weight or a greater than 20% body weight loss for two sequential measurements. The TTE is calculated and the median value is recorded for the group. Tumor Growth Delay (TGD) is then calculated with the following equation:\nTGD=median TTEtreatment−median TTEcontrol"}, "[2]": {"test_system": "HCT 116 colon cancer xenograft", "experiment": "In vivo efficacy, mouse xenograft", "remark": "listed apart in the source"}, "[3]": {"test_system": "phospho-histone H3 in HCT 116 cells", "experiment": "Phospho-histone H3 staining (High Content Screening)", "assay_type": "cell-based", "conditions": "Homo sapiens", "protocol": "Analysis of phospho-histone H3 (pHH3) levels was performed on adherent cells using high-content screening methodology. […]. This series was diluted 1000× in RPMI-1640 containing 10% FBS (1× treatment concentration: 10 μM-0.0002 μM). […].\nThen, medium was aspirated and cells were incubated in 100 μL/well 4% formaldehyde for 15 min at room temperature.\n[…]. […] Data were fit to an IC50 equation. […]. Cells were trypsinized, collected, lysed, and analyzed by immunoblotting."}, "[4]": {"test_system": "H1299", "experiment": "cells", "conditions": "Homo sapiens, NCI-H1299, 16 h, read-out: Cell Cycle EC50", "protocol": "(§1) Cells were fixed, stained, and analyzed. The percentage of cells with ≧4N DNA content as a function of concentration was fit to estimate EC50. For cell cycle analysis on nonadherent cells or cells with irregular morphology (A2780, HL-60, CCRF-CEM, and HT-29), tumor cells were seeded in 12-well tissue culture plates overnight at 37° C. […] Cells were trypsinized, collected, stained with propidium iodide, and analyzed by flow cytometry."}, "[5]": {"test_system": "Calu-6", "experiment": "cells", "conditions": "Homo sapiens, Calu-6, 16 h, read-out: Cell Cycle EC50", "protocol": "as §1"}, "[6]": {"test_system": "HCT116", "experiment": "cells", "conditions": "Homo sapiens, HCT-116, 16 h, read-out: Cell Cycle EC50", "protocol": "as §1"}, "[7]": {"test_system": "HeLa", "experiment": "cells", "conditions": "Homo sapiens, 16 h, read-out: Cell Cycle EC50", "protocol": "as §1"}, "[8]": {"test_system": "CCRF-CEM", "experiment": "cells", "conditions": "Homo sapiens, 16 h, read-out: Cell Cycle EC50", "protocol": "as §1"}, "[9]": {"test_system": "A2780", "experiment": "cells", "conditions": "Homo sapiens, A2780, 16 h, read-out: Cell Cycle EC50", "protocol": "as §1"}, "[10]": {"target": "Aurora C (Homo sapiens, UniProt Q9UQB9)", "sequence (Q9UQB9 whole entry)": "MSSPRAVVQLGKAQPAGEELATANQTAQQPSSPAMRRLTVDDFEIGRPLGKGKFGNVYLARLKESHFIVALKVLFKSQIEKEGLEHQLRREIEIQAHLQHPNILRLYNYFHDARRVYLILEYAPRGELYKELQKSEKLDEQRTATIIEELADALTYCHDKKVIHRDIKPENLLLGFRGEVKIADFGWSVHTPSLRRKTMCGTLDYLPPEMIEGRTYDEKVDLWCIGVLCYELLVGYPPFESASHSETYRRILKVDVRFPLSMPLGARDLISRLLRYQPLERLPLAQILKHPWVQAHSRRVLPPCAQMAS", "experiment": "HTRF-based biochemical IC50 assay", "text": "[…]. A biotin-conjugated histone H3 peptide (Upstate Biotechnology) was used as a substrate."}, "[11]": {"test_system": "variety of mice xenograft models representing a range of tissue types", "experiment": "In vivo efficacy across xenograft models (summary)", "conditions": "dose-dependent, well tolerated doses"}, "[12]": {"test_system": "MV-4-11 (human acute myeloid leukemia) xenograft", "experiment": "In vivo efficacy, mouse xenograft", "conditions": "150 mg/kg IP twice-weekly for 3 weeks", "protocol": "The human cell line MV-4-11 (human acute myeloid leukemia) was established as subcutaneous xenografts in nu/nu female mice. Animals were randomized by tumor volume and distributed into groups of ten animals each. Treatments were initiated when tumors averaged about 200 mm^3 in volume. End points for each group were determined based on body weight nadir, adverse clinical observations, or tumor volumes exceeding maximum threshold of 2000 mm^3.\n[…]. Responses were assessed by tumor growth inhibition (TGI) and tumor growth delay (TGD). TGI and TGD in the treatment group were evaluated against the vehicle control group."}, "[13]": {"experiment": "Pharmacokinetics, single bolus intravenous injection", "assay_type": "in vivo, beagle dogs", "conditions": "beagle, dog, plasma, 5 mg/kg", "text": "Pharmacokinetic parameters were estimated using noncompartmental analysis within WinNonlin v. 4.1. Quantification of Compound 2 was done by HPLC-MS/MS after extraction from plasma with acetonitrile. […] For rising dose experiments measuring exposure for each species, sets containing several animals were singly dosed at a given dose. Results from single-dose experiments are shown in FIG. 10A, Table 43, and in FIG. 10B and Table 44, respectively. […] C0 is initial concentration extrapolated to time zero. AUCINF is area under the plasma-concentration time curve from time zero extrapolated to the infinite time. CL is clearance; Vss is steady state volume of distribution. T1/2 is half-life."}, "[14]": {"experiment": "Clinical serum concentration versus target threshold", "assay_type": "in vivo, human", "conditions": "patients; for Duration of target serum concentration: target serum concentration 1 μM"}, "[15]": {"conditions": "HCT 116 (Colon), 75 mg/kg biw × 3"}, "[16]": {"conditions": "HCT 116 (Colon), 100 mg/kg biw × 3"}, "[17]": {"conditions": "HCT 116 (Colon), 150 mg/kg biw × 3"}}}
{"molecule": "CS(=O)(=O)O.O=C(Nc1cccc(Cl)c1)Nc1ncc(CCNc2ncnc3ccsc23)s1", "note": "[Compound 1, 1-(3-chlorophenyl)-3-{5-[2-(thieno[3,2-d]pyrimidin-4-ylamino)ethyl]thiazo}-urea]", "values": [{"measurement": "TGD", "setting": "[1]; 100 mg/kg, qd × 5, 9 d off × 2", "result": 45, "unit": "days"}, {"measurement": "TGD", "setting": "[1]; 125 mg/kg, Qw × 3", "result": 22.5, "unit": "days"}, {"measurement": "TGD", "setting": "[1]; 150 mg/kg, biw × 3", "result": 32.5, "unit": "days"}, {"measurement": "% TGI", "setting": "[1]; [15]", "result": 67.5, "unit": "%"}, {"measurement": "TGD", "setting": "[1]; [15]", "result": 22, "unit": "days"}, {"measurement": "% TGI", "setting": "[1]; [16]", "result": 79.4, "unit": "%"}, {"measurement": "TGD", "setting": "[1]; [16]", "result": 25.1, "unit": "days"}, {"measurement": "% TGI", "setting": "[1]; [17]", "result": 95.6, "unit": "%"}, {"measurement": "TGD", "setting": "[1]; [17]", "result": 32.5, "unit": "days"}, {"measurement": "% TGI (Day 36)", "setting": "[2]; 100 mg/kg, qd × 5, 9 d off × 2", "result": 91.6, "unit": "%"}, {"measurement": "% TGI (Day 36)", "setting": "[2]; 125 mg/kg, Qw × 3", "result": 79.8, "unit": "%"}, {"measurement": "% TGI (Day 36)", "setting": "[2]; 150 mg/kg, biw × 3", "result": 95.6, "unit": "%"}, {"measurement": "EC50", "setting": "[3]; HCT 116, 1 hour treatment, read-out: EC50 of the reduction of pHH3", "result": "~9", "unit": "nM"}, {"measurement": "IC50", "setting": "[3]; HCT 116, 1 hour, pHH3 staining", "result": 9, "unit": "nM"}, {"measurement": "EC50", "setting": "[4]", "result": 80, "unit": "nM"}, {"measurement": "EC50", "setting": "[5]", "result": 13, "unit": "nM"}, {"measurement": "EC50", "setting": "[6]", "result": 34, "unit": "nM"}, {"measurement": "EC50", "setting": "[7]", "result": 290, "unit": "nM"}, {"measurement": "EC50", "setting": "[8]", "result": 4.2, "unit": "nM"}, {"measurement": "EC50", "setting": "[9]", "result": 6.1, "unit": "nM"}, {"measurement": "IC50 values, Aurora kinase C (summary in words)", "setting": "[10]", "result": "low nanomolar range"}, {"measurement": "IC50", "setting": "[10]; HTRF, N 1", "result": 0.0034, "unit": "µM"}, {"measurement": "tumor growth inhibition", "setting": "[11]", "result": "58-99%"}, {"measurement": "tumor growth delay", "setting": "[12]", "result": 10, "unit": "days"}, {"measurement": "Percent tumor growth inhibition (% TGI)", "setting": "[12]; p-value 0.0008", "result": 75.56, "unit": "%"}]}
{"molecule": "O=C(Nc1cccc(Cl)c1)Nc1ncc(CCNc2ncnc3ccsc23)s1", "note": "[Compound 2, 1-(3-chlorophenyl)-3-{5-[2-(thieno[3,2-d]pyrimidin-4-ylamino)ethyl]thiazol-2-yl}-urea]", "values": [{"measurement": "AUC(0-inf)", "setting": "[13]", "result": 12300, "unit": "ng·h/mL"}, {"measurement": "C0", "setting": "[13]", "result": 2800, "unit": "ng/mL"}, {"measurement": "clearance", "setting": "[13]", "result": 6.8, "unit": "mL/min/kg"}, {"measurement": "half-life", "setting": "[13]", "result": 1.1, "unit": "h"}, {"measurement": "Vd", "setting": "[13]; read-out: Vss", "result": 1, "unit": "L/kg"}, {"measurement": "serum levels versus preclinical target inhibitory levels", "setting": "[14]; 240 mg/m^2 dose level", "result": "exceeded the preclinical target inhibitory levels"}, {"measurement": "minimum duration target serum concentration was achieved", "setting": "[14]; all dose levels", "result": "≥ 4", "unit": "h"}, {"measurement": "Duration of target serum concentration", "setting": "[14]; 3-hour infusion of Compound 1, 30 mg/m^2", "result": 4, "unit": "h"}, {"measurement": "Duration of target serum concentration", "setting": "[14]; 3-hour infusion of Compound 1, 60 mg/m^2", "result": 8, "unit": "h"}, {"measurement": "Duration of target serum concentration", "setting": "[14]; 3-hour infusion of Compound 1, 120 mg/m^2", "result": 10, "unit": "h"}, {"measurement": "Duration of target serum concentration", "setting": "[14]; 3-hour infusion of Compound 1, 240 mg/m^2", "result": 20, "unit": "h"}, {"measurement": "Duration of target serum concentration", "setting": "[14]; 3-hour infusion of Compound 1, 480 mg/m^2", "result": 20, "unit": "h"}]}
